Assay results taken from patent publication US11331299B2, “Medicinal use of serrulatane diterpenes” (The University of Sydney, priority 2016, dated 2022).
Read-outs that look alike come from different tables or passages of the source.

System: 280 human cancer cell lines
Experiment: OncoPanel cell proliferation assay (10-day)
Format: cell-based
Conditions: Homo sapiens; for IC50: read-out: Cell Count IC50; for EC50: read-out: Cell Count EC50
[1] = SW872, SW872, Soft Tissue - Sarcoma
[2] = SW 954, SW954, Female GU - Vulva
[3] = SW982, SW982, Soft Tissue - Sarcoma
[4] = SW1353, SW1353, Soft Tissue - Osteosarcoma
[5] = TE 125.T, Soft Tissue - Sarcoma
[6] = TE 381.T, Soft Tissue - Sarcoma
[7] = U2OS, Soft Tissue - Osteosarcoma
[8] = U-118-MG, U-118 MG, CNS - Glioma
[9] = VA-ES-BJ, Soft Tissue - Sarcoma
[10] = WM 266-4, WM-266-4, Skin (Melanoma)

CC(C)=CCC[C@@H]1C(O)Oc2c(C)cc(O)c3c2[C@H]1CC[C@H]3C (some centres unmarked) [Compound 2, 5,18-epoxyserrulat-14-en-8,18-diol]
IC50 (SW837, SW837, Colon): > 30 µM
EC50 [1]: 4.46 µM
GI50 (SW872, SW872, Soft Tissue - Sarcoma, read-out: Cell Count GI50): 4.45 µM
IC50 [1]: 4.46 µM
EC50 (SW900, SW900, Lung - SCLC): 26.6 µM
GI50 (SW900, SW900, Lung - SCLC, read-out: Cell Count GI50): 26.7 µM
IC50 (SW900, SW900, Lung - SCLC): 26.8 µM
EC50 (SW948, SW948, Colon): 14.7 µM
GI50 (SW948, SW948, Colon, read-out: Cell Count GI50): 14.5 µM
IC50 (SW948, SW948, Colon): 14.7 µM
EC50 [2]: > 30 µM
GI50 (SW 954, SW954, Female GU - Vulva, read-out: Cell Count GI50): > 30 µM
IC50 [2]: > 30 µM
EC50 [3]: 7.63 µM
GI50 (SW982, SW982, Soft Tissue - Sarcoma, read-out: Cell Count GI50): 7.53 µM
IC50 [3]: 7.63 µM
EC50 (SW1088, SW1088, CNS - Glioma): 10.7 µM
GI50 (SW1088, SW1088, CNS - Glioma, read-out: Cell Count GI50): 10.5 µM
IC50 (SW1088, SW1088, CNS - Glioma): 10.7 µM
EC50 [4]: 9.49 µM
GI50 (SW1353, SW1353, Soft Tissue - Osteosarcoma, read-out: Cell Count GI50): 9.46 µM
IC50 [4]: 9.49 µM
EC50 (SW1417, SW1417, Colon): 22.8 µM
GI50 (SW1417, SW1417, Colon, read-out: Cell Count GI50): 21.8 µM
IC50 (SW1417, SW1417, Colon): 22.8 µM
EC50 (SW1463, SW1463, Colon): > 30 µM
GI50 (SW1463, SW1463, Colon, read-out: Cell Count GI50): > 30 µM
IC50 (SW1463, SW1463, Colon): > 30 µM
EC50 (SW1783, SW1783, CNS - Glioma): 10.2 µM
GI50 (SW1783, SW1783, CNS - Glioma, read-out: Cell Count GI50): 10.5 µM
IC50 (SW1783, SW1783, CNS - Glioma): 11 µM
EC50 (SW-403, SW403, Colon): > 30 µM
GI50 (SW-403, SW403, Colon, read-out: Cell Count GI50): > 30 µM
IC50 (SW-403, SW403, Colon): > 30 µM
EC50 (SW-620, SW620, Colon): 13.2 µM
GI50 (SW-620, SW620, Colon, read-out: Cell Count GI50): 13.2 µM
IC50 (SW-620, SW620, Colon): 13.2 µM
EC50 (SiHa, Female GU - Cervix): 28.3 µM
GI50 (SiHa, Female GU - Cervix, read-out: Cell Count GI50): 25.8 µM
IC50 (SiHa, Female GU - Cervix): 28.3 µM
EC50 (T24, Bladder): 20.4 µM
GI50 (T24, Bladder, read-out: Cell Count GI50): 20.3 µM
IC50 (T24, Bladder): 20.4 µM
EC50 (T47D, Breast): 10.2 µM
GI50 (T47D, Breast, read-out: Cell Count GI50): 9.4 µM
IC50 (T47D, Breast): 10.2 µM
EC50 (T98G, CNS - Glioma): 19.1 µM
GI50 (T98G, CNS - Glioma, read-out: Cell Count GI50): 19 µM
IC50 (T98G, CNS - Glioma): 19.1 µM
EC50 (TCC-SUP, TCCSUP, Bladder): 8.2 µM
GI50 (TCC-SUP, TCCSUP, Bladder, read-out: Cell Count GI50): 7.78 µM
IC50 (TCC-SUP, TCCSUP, Bladder): 8.2 µM
EC50 [5]: > 30 µM
GI50 (TE 125.T, Soft Tissue - Sarcoma, read-out: Cell Count GI50): 28.7 µM
IC50 [5]: > 30 µM
EC50 [6]: 8.14 µM
GI50 (TE 381.T, Soft Tissue - Sarcoma, read-out: Cell Count GI50): 7.99 µM
IC50 [6]: 8.14 µM
EC50 (TF-1, Leukemia): 2.75 µM
GI50 (TF-1, Leukemia, read-out: Cell Count GI50): 2.44 µM
IC50 (TF-1, Leukemia): 2.75 µM
EC50 (THP-1, Thp1, Leukemia): 5.32 µM
GI50 (THP-1, Thp1, Leukemia, read-out: Cell Count GI50): 5.61 µM
IC50 (THP-1, Thp1, Leukemia): 5.69 µM
EC50 (TUR, Lymphoma): 2.63 µM
GI50 (TUR, Lymphoma, read-out: Cell Count GI50): > 30 µM
IC50 (TUR, Lymphoma): > 30 µM
EC50 [7]: 12.7 µM
GI50 (U2OS, Soft Tissue - Osteosarcoma, read-out: Cell Count GI50): 12.7 µM
IC50 [7]: 12.7 µM
EC50 (U138-MG, U-138MG, CNS - Glioma): > 30 µM
GI50 (U138-MG, U-138MG, CNS - Glioma, read-out: Cell Count GI50): > 30 µM
IC50 (U138-MG, U-138MG, CNS - Glioma): > 30 µM
EC50 (U266B1, Myeloma): 9.15 µM
GI50 (U266B1, Myeloma, read-out: Cell Count GI50): 9.01 µM
IC50 (U266B1, Myeloma): 9.28 µM
EC50 (U-87 MG, CNS - Glioma): > 30 µM
GI50 (U-87 MG, CNS - Glioma, read-out: Cell Count GI50): > 30 µM
IC50 (U-87 MG, CNS - Glioma): > 30 µM
EC50 [8]: 29.6 µM
GI50 (U-118-MG, U-118 MG, CNS - Glioma, read-out: Cell Count GI50): 29.4 µM
IC50 [8]: 29.6 µM
EC50 (UMUC3, UM-UC-3, Bladder): 5.3 µM
GI50 (UMUC3, UM-UC-3, Bladder, read-out: Cell Count GI50): 5.74 µM
IC50 (UMUC3, UM-UC-3, Bladder): 5.75 µM
EC50 [9]: > 30 µM
GI50 (VA-ES-BJ, Soft Tissue - Sarcoma, read-out: Cell Count GI50): > 30 µM
IC50 [9]: > 30 µM
EC50 [10]: 6.39 µM
GI50 (WM 266-4, WM-266-4, Skin (Melanoma), read-out: Cell Count GI50): 6.25 µM
IC50 [10]: 6.39 µM
EC50 (WiDr, Colon): 14.5 µM
GI50 (WiDr, Colon, read-out: Cell Count GI50): 14.4 µM
IC50 (WiDr, Colon): 14.5 µM
EC50 (Y79, Eye): 6.57 µM
GI50 (Y79, Eye, read-out: Cell Count GI50): 7.41 µM
IC50 (Y79, Eye): 7.65 µM
EC50 (YAPC, Pancreas): 13 µM
GI50 (YAPC, Pancreas, read-out: Cell Count GI50): 12.9 µM
IC50 (YAPC, Pancreas): 13 µM
GI50 (strong: J-RT3-T3-5, Jurkat, MOLT-3, NALM-6, TF-1, RPMI8226, SKO-007, RD, read-out: GI50): 1 to 2.96 µM
